This passage reports EC50 results from patent US20260327224A1, “SUBSTITUTED PYRIDOTRIAZOLE COMPOUND, AND PREPARATION METHOD THEREFOR AND USE THEREOF” (ORIGIANT PHARMACEUTICAL CO., LTD., priority 2023, published 2026).

This experiment has as its system HT-29 cells (colon cancer cells). The experiment in a line: In vitro assay for protection of HT-29 cells from necroptosis (TNFα/Smac mimetic/Z-VAD-FMK, CCK-8). To be noted: Homo sapiens, Protective Activity Against Necroptosis, TNFα/Smac mimetic/Z-VAD-FMK induced, 24 h. In kind it is cell-based. The source says: Z′=1−3(SDmin+SDmax)/(AVEmax−AVEmin) • wherein: • Min is the positive control Data, and Max is the negative control DMSO Data. • SD is the standard deviation, and AVE is the average. In Vitro Assay for Protection of HT-29 Cells from Necroptosis:
1) Experimental Materials
DMEM medium was purchased from Gibco; penicillin-streptomycin was purchased from Hyclone; TNFα was purchased from Peprotech; Smac mimetic and Z-VAD-FMK were purchased from Selleck; and CCK-8 was purchased from Medchem Express.
HT-29 cells (colon cancer cells) were cultured in DMEM+10% FBS+penicillin/streptomycin. For the experiment, HT-29 cells in the logarithmic phase were collected and seeded into 96-well plates at a specific density (typically 8×10^3 cells/well for adherent cells). The cells were cultured overnight in an incubator at 37° C. with 5% CO2. On the following day, the test compound was diluted with culture medium to the corresponding concentrations and added into the 96-well plate, with 3 replicate wells for each sample. A solvent control group and a blank control group containing only culture medium were set simultaneously. The spiked cells were induced with a combination of TNFα/Smac mimetic/Z-VAD-FMK for 24 h. Subsequently, 10 μL of CCK8 solution was added to each well, and the cells were incubated in an incubator for 1-3 h. Absorbance was measured at […] using a microplate reader, and the cell necrosis protection rate of the drug was calculated using the following formula:
Cell necrosis protection rate=[(X−C0)/(C−C0)]×100% • where C, C0, and X represent the average absorbance values of the solvent control group, the blank control group, and the drug treatment group, respectively. Finally, a cell viability curve was fitted using Graphpad Prism 5.0 software, and the EC50 value of the test compound for inhibiting necroptosis was calculated.

Bounds are passed on as bounds.

As usually defined, the EC50 is the midpoint of the concentration-response curve.

Turning to `C[C@H](NC(=O)c1cn(C)c2ccc(-c3ccn4nc(NC(=O)CN5CC(C)(C#N)C5)nc4c3)cc12)c1ccc(F)cc1` [Compound 29], the half-maximal effective concentration (EC50) was under 1 nM.

With `C[C@H](NC(=O)c1cn(C)c2ccc(-c3ccn4nc(NC(=O)CN5CCN(C(=O)OC(C)(C)C)C[C@H]5C)nc4c3)cc12)c1ccc(F)cc1` [Compound 64], the EC50 is under 1 nM.

Regarding `C[C@H](NC(=O)c1cn(C)c2ccc(-c3ccn4nc(NC(=O)C5CCOC5)nc4c3)cc12)c1ccc(F)cc1` (stereo partly shown) [Compound 106], the EC50 is under 1 nM.

As for `COCCn1cc(C(=O)N[C@@H](CF)c2ccc(F)cc2)c2cc(-c3ccn4nc(NC(=O)N5CCOCC5)nc4c3)ccc21` [Compound 214], the EC50 lay within 10 to 100 nM.

Consider `C[C@H](NC(=O)c1cn(C)c2ccc(-c3ccn4nc(NC(=O)CN5CCOCC5C(=O)O)nc4c3)cc12)c1ccc(F)cc1` (stereo partly shown) [Compound 33], for which the EC50 lay in the range of 1000 to 10000 nM.

With `C[C@H](NC(=O)c1cn(C)c2ccc(-c3ccn4nc(NC(=O)CN5CCSCC5)nc4c3)cc12)c1ccc(Cl)cc1` [Compound 87], the EC50 was under 1 nM.

As for `CC1CN(CC(=O)Nc2nc3cc(-c4ccc5c(c4)c(C(=O)N[C@@H](C)c4ccc(Cl)cc4)cn5C)ccn3n2)CCO1` (stereo partly shown) [Compound 84], the EC50 is under 1 nM.

As for `CC(C(=O)Nc1nn(C)c2ccc(-c3ccn4nc(NC(=O)CN(C)C)nc4c3)cc12)c1ccc(F)cc1` (stereo not shown) [Compound 180], the EC50 is 1000 to 10000 nM.

Turning to `Cn1cc(C(=O)Nc2nc3cc(-c4ccc5c(c4)c(C(=O)N[C@H]4CCCc6cc(F)ccc64)cn5C)ccn3n2)cn1` [Compound 141], the EC50 was in the range of 1 to 10 nM.

For `C[C@H](NC(=O)c1cn(C)c2ccc(-c3ccn4nc(NC(=O)CN5CC(C#N)C5)nc4c3)cc12)c1ccc(F)cc1` [Compound 34], the concentration for a half-maximal effect (EC50) is under 1 nM.

`C[C@H](NC(=O)c1cn(C)c2ccc(-c3ccn4nc(NC(=O)CN5CCOCC5)nc4c3)cc12)C(C)(C)C` [Compound 90]: the concentration for a half-maximal effect (EC50) lay in the range of 1000 to 10000 nM.

With `Cn1cc(C(=O)N[C@H](c2ccc(F)cc2)C(F)F)c2cc(-c3ccn4nc(NC(=O)CC#N)nc4c3)ccc21` [Compound 164], the EC50 was under 1 nM.

`CO[C@@H](C)C(=O)Nc1nc2cc(-c3ccc4c(c3)c(C(=O)N[C@@H](CF)c3ccc(F)cc3)cn4C)ccn2n1` [Compound 98]: the EC50 was under 1 nM.

Turning to `CC(C(=O)Nc1nc2cc(-c3ccc4c(c3)c(C(=O)N[C@@H](C)c3ccc(F)cc3)cn4C)ccn2n1)N1CC[C@H](O)C1` (stereo partly shown) [Compound 1], the 50% effective concentration (EC50) is 10 to 100 nM.

Turning to `C[C@H](NC(=O)c1cn(C)c2ccc(-c3ccn4nc(NC(=O)CN5CC(F)(F)C5)nc4c3)cc12)c1ccc(F)cc1` [Compound 42], the EC50 is under 1 nM.

For the compound `Cn1cc(C(=O)N[C@H]2CCc3ccc(F)cc32)c2cc(-c3ccn4nc(NC(=O)[C@H]5CCCO5)nc4c3)ccc21` [Compound 121], the EC50 was under 1 nM.

Turning to `Cn1cc(C(=O)Nc2nc3cc(-c4ccc5c(c4)c(C(=O)N[C@H]4CCCc6ccc(F)cc64)cn5C)ccn3n2)cn1` [Compound 143], the EC50 lay in the range of 1 to 10 nM.

For the compound `C[C@H](NC(=O)c1cn(C)c2ccc(-c3ccn4nc(NC(=O)CN5CCOCC5=O)nc4c3)cc12)c1ccc(F)cc1` [Compound 16], the EC50 lay within 10 to 100 nM.

As for `C[C@H](NC(=O)c1cn(C)c2ccc(-c3ccn4nc(NC(=O)CN5CCOC[C@H]5C)nc4c3)cc12)c1ccc(Cl)cc1` [Compound 81], the EC50 was under 1 nM.

Consider `Cn1cc(C(=O)N[C@@H](CF)c2ccc(F)cc2)c2cc(-c3ccn4nc(NCC5CC5)nc4c3)ccc21` [Compound 108], for which the EC50 was under 1 nM.

On to `CCOC(=O)C(=O)Nc1nc2cc(-c3ccc4c(c3)c(C(=O)N[C@@H](C)c3ccc(F)cc3)cn4C)ccn2n1` [Compound 10], for which the EC50 is 1 to 10 nM.

`Cn1cc(C(=O)N[C@H]2CCCc3cc(F)ccc32)c2cc(-c3ccn4nc(NC(=O)[C@@H]5CCCO5)nc4c3)ccc21` [Compound 139]: the half-maximal effective concentration (EC50) lay within 1 to 10 nM.

`CC(c1ccc(F)cc1)n1cnc(-c2cn(C)c3ccc(-c4ccn5nc(NC(=O)c6cnn(C)c6)nc5c4)cc23)n1` (stereo not shown) [Compound 208]: the EC50 fell in the range of 100 to 1000 nM.

As to `Cn1cc(C(=O)N[C@@H](CF)c2cccc(F)c2)c2cc(-c3ccn4nc(NC(=O)[C@H]5CCCO5)nc4c3)ccc21` [Compound 183], the EC50 is under 1 nM.

`Cn1cc(C2=NC(c3ccc(F)cc3)CO2)c2cc(-c3ccn4nc(NC(=O)C5CC5F)nc4c3)ccc21` (stereo not shown) [Compound 211]: the EC50 fell in the range of 10 to 100 nM.

`Cn1cc(C(=O)N2N=CCC2c2ccc(F)cc2)c2cc(-c3ccn4nc(NC(=O)C5CCOC5)nc4c3)ccc21` (stereo not shown) [Compound 169]: the EC50 was under 1 nM.

With `C[C@H](NC(=O)c1cn(C)c2ccc(-c3ccn4nc(NC(=O)CNCCOCCO)nc4c3)cc12)c1ccc(F)cc1` [Compound 65], the EC50 was under 1 nM.

Consider `C[C@H](NC(=O)c1nn(C)c2ccc(-c3ccn4nc(NC(=O)CN5CCOCC5)nc4c3)cc12)c1ccc(F)cc1` [Compound 196], for which the EC50 is under 1 nM.

Turning to `C[C@H](NC(=O)c1cn(C)c2ccc(-c3ccn4nc(NC(=O)C(=O)N5CCOCC5)nc4c3)cc12)c1ccc(F)cc1` [Compound 9], the EC50 is under 1 nM.

As for `Cn1cc(C(=O)N[C@H]2CCc3cc(C#N)ccc32)c2cc(-c3ccn4nc(NC(=O)C5CC5)nc4c3)ccc21` [Compound 130], the EC50 is 1 to 10 nM.

Turning to `Cn1cc(C(=O)Nc2nc3cc(-c4ccc5c(c4)c(C(=O)N4CCOC[C@@H]4c4ccc(F)cc4)cn5C)ccn3n2)cn1` [Compound 149], the EC50 is under 1 nM.

`CC(c1ccc(F)cc1)n1cnnc1-c1cn(C)c2ccc(-c3ccn4nc(NC(=O)C5CCOC5)nc4c3)cc12` (stereo not shown) [Compound 217]: the EC50 fell in the range of 10 to 100 nM.

Take `Cn1cc(C(=O)Nc2nc3cc(-c4ccc5c(c4)c(C(=O)N[C@H]4CCc6ccc(F)cc64)cn5C)ccn3n2)cn1` [Compound 122]: the concentration for a half-maximal effect (EC50) was 100 to 1000 nM.

As to `C[C@H](NC(=O)c1cn(C)c2ccc(-c3ccn4nc(NC(=O)CN5C6CC7CC(C6)C(O)C5C7)nc4c3)cc12)c1ccc(F)cc1` (stereo partly shown) [Compound 59], the EC50 was under 1 nM.

`Cn1cc(C(=O)Nc2nc3cc(-c4ccc5c(c4)c(C(=O)N4CCC[C@H]4c4ccc(F)cc4)cn5C)ccn3n2)cn1` [Compound 207]: the EC50 was under 1 nM.

As to `C[C@H](NC(=O)c1cn(C)c2ccc(-c3ccn4nc(NC(=O)CN5CCN(CCO)CC5)nc4c3)cc12)c1ccc(F)cc1` [Compound 70], the EC50 is under 1 nM.

Turning to `COCC(=O)Nc1nc2cc(-c3ccc4c(c3)c(C(=O)N[C@H](c3ccc(F)cc3)C(F)F)cn4C)ccn2n1` [Compound 166], the concentration for a half-maximal effect (EC50) was under 1 nM.

Consider `C[C@H](NC(=O)c1cn(C)c2ccc(-c3ccn4nc(NC(=O)[C@@H]5CCC(=O)N5)nc4c3)cc12)c1ccc(F)cc1` [Compound 14], for which the EC50 is under 1 nM.

For the compound `C[C@H](NC(=O)c1cn(C)c2ccc(-c3ccn4nc(NC(=O)CN5CC(F)(F)C5)nc4c3)cc12)c1ccc(Cl)cc1` [Compound 80], the EC50 was under 1 nM.

For `C[C@H](NC(=O)c1cn(C)c2ccc(-c3ccn4nc(NC(=O)CN5CC[C@H](F)C5)nc4c3)cc12)c1ccc(F)cc1` [Compound 21], the concentration giving a half-maximal response (EC50) was under 1 nM.

For the compound `C[C@H](NC(=O)c1cn(C)c2ccc(-c3ccn4nc(NC(=O)CN5CCC(O)CC5)nc4c3)cc12)c1ccc(F)cc1` [Compound 6], the EC50 was under 1 nM.

With `C[C@H](NC(=O)c1nn(C)c2ccc(-c3ccn4nc(NC(=O)N5CCOCC5)nc4c3)cc12)c1ccc(F)cc1` [Compound 195], the EC50 was under 1 nM.

With `COC(C)C(=O)Nc1nc2cc(-c3ccc4c(c3)c(C(=O)N[C@@H](CF)c3ccc(F)cc3)cn4C)ccn2n1` (stereo partly shown) [Compound 112], the concentration for a half-maximal effect (EC50) is under 1 nM.

On to `Cn1cc(C(=O)N2CC(F)(F)CC2c2ccc(F)cc2)c2cc(-c3ccn4nc(NC(=O)C5CC5)nc4c3)ccc21` (stereo not shown) [Compound 158], for which the EC50 is 1000 to 10000 nM.

`Cn1cc(C(=O)N[C@H](c2ccc(F)cc2)C(F)F)c2cc(-c3ccn4nc(NC(=O)CN5CCCCC5)nc4c3)ccc21` [Compound 163]: the EC50 was under 1 nM.

For the compound `C[C@H](NC(=O)c1cn(C)c2ccc(-c3ccn4nc(NC(=O)CN5CCS(=O)(=O)CC5)nc4c3)cc12)c1ccc(F)cc1` [Compound 28], the 50% effective concentration (EC50) lay in the range of 1 to 10 nM.

Take `CCNCC(=O)Nc1nc2cc(-c3ccc4c(c3)c(C(=O)N[C@@H](C)c3ccc(F)cc3)cn4C)ccn2n1` [Compound 76]: the EC50 was under 1 nM.

For the compound `Cn1cc(C(=O)N2CCC[C@H]2c2ccc(F)cc2)c2cc(-c3ccn4nc(NC(=O)N5CCOCC5)nc4c3)ccc21` [Compound 153], the EC50 was under 1 nM.

For the compound `Cn1cc(C(=O)N2CCC[C@H]2c2ccc(F)cc2)c2cc(-c3ccn4nc(NC(=O)C5CCOC5)nc4c3)ccc21` (stereo partly shown) [Compound 186], the EC50 was under 1 nM.

`C[C@H](NC(=O)c1cn(C)c2ccc(-c3ccn4nc(NC(=O)CN5CC[C@@H](O)C5)nc4c3)cc12)c1ccc(F)cc1` [Compound 12]: the EC50 was under 1 nM.

Take `Cn1cc(C(=O)NC2(c3ccc(F)cc3)COC2)c2cc(-c3ccn4nc(NC(=O)C5CC5)nc4c3)ccc21` [Compound 148]: the EC50 is 10 to 100 nM.

Consider `CN1CCN(C(=O)Nc2nc3cc(-c4ccc5c(c4)c(C(=O)N[C@@H](CF)c4ccc(F)cc4)cn5C)ccn3n2)CC1` [Compound 95], for which the EC50 was under 1 nM.
